Results from patent US20080187575A1 (priority 2004, published 2008).

System: pathogenic form of the prion protein PrP^Sc in prion infected cells (3F4-ScN2a)
Assay type: cell-based, mouse
Conditions: for amount of PrP^Sc in prion infected cells: concentration range between 5 and 20 μM (final concentration), three days; for activity of prion propagation (FIG. 5): within concentration range 5 to 20 μM

Structure (SMILES)	amount of PrP^Sc in prion infected cells	activity of prion propagation (FIG. 5)
O=S(=O)(Nc1cccc(Nc2nccc(-c3ccncc3)n2)c1)c1ccc(Cl)cc1 [Compound 37, 4-Chloro-N-[3-(4-pyridin-4-yl-pyrimidin-2-ylamino)-phenyl]-benzenesulfonamide]	significantly reduced	inhibit almost completely
Cc1ccc(NC(=O)c2ccc(CCl)cc2)cc1Nc1nccc(-c2cccnc2)n1 [Compound 5, 4-Chloromethyl-N-[4-methyl-3-(4-pyridin-3-yl-pyrimidin-2-ylamino)-phenyl]-benzamide]	significantly reduced	inhibit almost completely
Cc1ccc(N)cc1Nc1nccc(-c2cccnc2)n1 [Compound 4, 4-Methyl-N-3-(4-pyridin-3-yl-pyrimidin-2-yl)-benzene-1,3-diamine]	significantly reduced	inhibit almost completely
